According to patent publication US8133872B2 (Industrial Cooperation Foundation, Chonbuk National …, priority 2008, dated 2012):
Entries after “also recorded” stand apart in the source; their conditions may differ.

What was measured:
pancreatic β-islet cells = assay: Insulin secretion from isolated mouse pancreatic islets treated with NAADP (radioimmunoassay); type: cell-based, mice
Procedure: The isolation of pancreatic islets from six, 8-week-old ICR mice (Orientbio Inc., Seongnam-si, Korea) weighing 25-30 g was carried out according to the method of Lacy and Kotianovsky (Diabetes, 16, 35-39, 1967) in the following manner. Mice were sacrificed by cervical dislocation, and the peritoneum was incised. Hank's balanced salt solution (HBSS, Gibco, USA) containing 1 mg/mL of collagenase (Sigma, USA) was infused into the bile duct to inflate the pancreas, and then the pancreas was isolated. The isolated pancreas was incubated at 37° C. for 20 minutes, and then homogeneously agitated. The agitated solution was washed with HBSS to remove acinar cells, and then pancreatic islets of a given size were separated from the solution under stereoscopic binocular microscope. […] The concentration of insulin in the supernatant from which the pancreatic β-islet cells have been removed was measured. The measurement of the insulin concentration was carried out by radioimmunoassay using an insulin measurement kit (Diagnostic Products Corp., USA).
Insulin secretion from the mouse pancreatic β-islet cells after treatment by 0 nM and 50 nM at extracellular glucose concentrations maintained at 2.8 mM and 12 mM was measured, and the measurement results are shown in FIG. 1.

[1] = system: type-2 diabetic mice (C57BL/KsJ-db/db Jcl); assay: Glucose tolerance test (blood glucose after glucose load) in type-2 diabetic mice given NAADP by osmotic mini-pump; type: in vivo
Source text: Seven-week-old type-2 diabetic mice were divided into a control group (five animals) and test groups and tested using an osmotic mini-pump in the following manner. […] Then, the NAADP solution was infused into the abdominal cavity of the mice according to the method described in the supplier's manual.

[2] = system: type-2 diabetic mice (C57BL/KsJ-db/db Jcl); assay: Serum insulin after glucose load in type-2 diabetic mice given NAADP (insulin RIA kit); type: in vivo
Procedure: The same test method as described in Example 2 was used, and 50 μl of blood was collected from the tail vein just before glucose load. At 30 minutes (showing the highest blood glucose level after glucose load) and at 120 minutes (showing the lowest blood glucose level after glucose load), the same amount of blood was collected and coagulated, and serum was separated from the blood. The separated serum was measured for insulin concentration using an insulin RIA kit (Linco Research Inc., USA).

[3] = system: pancreatic islet cells of type-2 diabetic mice; assay: Immunohistochemical (anti-insulin antibody) and hematoxylin-eosin staining of pancreatic islets; type: in vivo; conditions: 1 mg/kg/day for 3 weeks, FIG. 4
Procedure: After 120 minutes, the mice were sacrificed by cervical dislocation, and then immediately the peritoneum was incised. Then, the intestinal and pancreatic tissues were collected and fixed in 4% paraformaldehyde solution (solvent-phosphate buffer; pH 7.4; Sigma, USA) for 12 hours or more. Then, the pancreatic tissue was separated from the intestinal or adipose tissue, and the separated tissue was washed three times or more with a fresh fixture and then processed into paraffin-embedded tissue according to a conventional method.
Tissue sections were cut from the paraffin-embedded tissue at 5-μm intervals using a microtome (Shandon, Germany) and applied to slides coated with poly-L-lysine (Sigma, USA) before use in immunohistochemical staining. In order to remove paraffin from the pancreatic tissue-coated slides, sections were deparaffinized with xylene (Junsei, Japan) for 5 minutes to remove paraffin. Then, the sections were hydrated in 100-70% alcohol series and allowed to stand in phosphate buffer (pH 7.4) for 5 minutes. Then, the sections were treated with 3% hydrogen peroxide to remove intrinsic peroxidase, and then allowed to react with anti-insulin antibody (Dako, USA) at 4° C. for 12 hours. Then, the section samples were subjected to immunohistochemical staining with anti-insulin antibody using an immunohistochemical staining kit (A.B.I., Jeonju-si, Korea). […]

[4] = 1 mg/kg/day NAADP by osmotic mini-pump, fasting from 13 hours before testing
[5] = 1 mg/kg/day NAADP by osmotic mini-pump, sera at 0, 30 and 120 min

**Q.** Which results are given for “nicotinic acid adenine dinucleotide phosphate [NAADP]”?
**A.** insulin secretion from pancreatic β-islet cells (pancreatic β-islet cells; 50 nM NAADP, glucose 12 mM, 37° C., FIG. 1): great increase in insulin secretion; NAADP concentration essential for stimulating insulin secretion from pancreatic β-islet cells (pancreatic β-islet cells; in the presence of glucose): 5 to 500 nM; time at which blood glucose returned to the fasting blood glucose level after glucose load [1, 4]: 120 min; time of blood glucose peak after glucose load [1, 4]: 30 min; blood glucose levels ([1]; 1 mg/kg/day intraperitoneally by osmotic mini-pump, 3 weeks, type-2 diabetic mice, FIG. 2): clear decrease in blood glucose levels; also recorded: clear effect of lowering the blood glucose levels; blood insulin level after the peak, up to 120 minutes after glucose load [2, 5]: maintained at a constant level; time of blood insulin peak after glucose load [2, 5]: 30 min; blood insulin concentration ([2]; 1 mg/kg/day, at 3 weeks (10-week-old), after glucose load, FIG. 3): clear increase in blood insulin concentration; hematoxylin-eosin staining: capsules covering the pancreatic islets and β-islet cells [3]: clustered together; positive response of pancreatic β-islet cells to anti-insulin antibody ([3]; compared to control group): clearly increased
